Results as given in ChEMBL document CHEMBL3301472, “MMV Malaria Box HIV and cytotoxicity screening”.

How the values were obtained:
[1] = tested on: Human immunodeficiency virus 1; test: MMV: HIV CXCR4-tropic env NL4-3 pseudovirus assay produces luciferase signal in lieu of replicating viral particles Day 3 pi, U87-CD4-CXCR4, % inhibition at 5 mM compound; assay type: functional; design: dose or concentration left out as unconfirmed; settings: Human immunodeficiency virus 1, NL4-3, U87.CD4.CXCR4, 72 h
[2] = MMV: MTT Cytotoxicity Assay Day 3 pi, U87-CD4-CCR5 cells, % cell death @ 5mM compound; assay type: toxicity, cell-based; settings: human, u87-cd4-ccr5, 5000 µM
[3] = MMV: MTT Cytotoxicity Assay Day 3 pi, U87-CD4-CXCR4 cells, % cell death @ 5mM compound; assay type: toxicity, cell-based; settings: human, u87-cd4-cxcr4, 5000 µM
[4] = MMV: MTT Cytotoxicity Assay Day 7 pi of Assay #6 (compound washed out Day 1 pi), U87-CD4-CCR5 cells, % cell death @ 5mM compound; assay type: toxicity, cell-based; settings: human, u87-cd4-ccr5, 5000 µM
[5] = MMV: MTT Cytotoxicity Assay Day 7 pi of Assay #7 (compound washed out Day 1 pi), U87-CD4-CXCR4 cells, % cell death @ 5mM compound; assay type: toxicity, cell-based; settings: human, u87-cd4-cxcr4, 5000 µM
[6] = tested on: Human immunodeficiency virus 1; test: MMV: HIV JRFL CCR5-tropic replication-competent virus, NO washout, P24 ELISA Day 7 pi, U87-CD4-CCR5, % inhibition at 5 mM compound; assay type: functional; design: dose or concentration left out as unconfirmed; settings: Human immunodeficiency virus 1, JR-FL, U87/CD4/CCR5, 168 h
[7] = MMV: MTT Cytotoxicity Assay Day 7 pi of Assay #10 (NO washout), U87-CD4-CCR5 cells, % cell death @ 5mM compound; assay type: toxicity, cell-based; settings: human, u87-cd4-ccr5, 5000 µM
[8] = MMV: MTT Cytotoxicity Assay Day 7 pi of Assay #11 (NO washout), U87-CD4-CXCR4 cells, % cell death @ 5mM compound; assay type: toxicity, cell-based; settings: human, u87-cd4-cxcr4, 5000 µM

| SMILES | inhibition [1] [%] | % Cell Death [2] | % Cell Death [3] | % Cell Death [4] | % Cell Death [5] | inhibition [6] [%] | % Cell Death [7] | % Cell Death [8] |
| --- | --- | --- | --- | --- | --- | --- | --- | --- |
| CN(C)CCCNc1c2ccccc2nc2ccccc12 | 1 | 30 | 21 | 8 | 15 | 3 | 30 | -4 |
| Cc1cc(N(C)C)nc(Nc2ccc(NC(=O)Nc3ccccc3)cc2)n1 | – | 12 | 40 | -5 | -7 | 4 | 18 | -30 |
| CCCc1c(C)nc2ccccc2c1O | 9 | 5 | 8 | 22 | 31 | -2 | 18 | 51 |
